Here are results for 7 compounds from publication PMC3410885, “6-Arylpyrido[2,3-d]pyrimidines as Novel ATP-Competitive Inhibitors of Bacterial D-Alanine:D-Alanine Ligase” (PLoS ONE, 2012).

Each structure is given as a SMILES string. In brackets after ≈: the same amount, converted by molar mass.

Series [1] addresses T1, E. coli DdlB (Escherichia coli, UniProt P07862).
T1 construct: polyhistidine (His) tag (N); made in house; host or cells: E. coli BL21(λDE3), vector pQE-30 UA (Qiagen)
Nature of the series: Colorimetric malachite green inhibition assay of DdlB. Format: biochemical. Particulars: for IC50: malachite green assay, 700 μM D-Ala, 500 μM ATP, 37°C, 20 min, read-out: inhibitory activity on DdlB: IC50; for Ki: against ATP (50-500 μM), D-Ala 10 mM, competitive model; for mode of inhibition of DdlB: kinetic analysis at different inhibitor and ATP concentrations. Here is the method: All of the synthesized 6-arylpyrido[2,3-d]pyrimidines 11–36 were assayed for in vitro inhibitory activity on E. coli DdlB by detecting orthophosphate generated during the enzymatic reaction using a Malachite green assay.
Inhibition of DdlB was measured at different inhibitor and ATP concentrations in order to determine Ki values and the mode-of-action of both compounds.
The target compounds were tested for their ability to inhibit the D-Ala-adding activity of DdlB ligase with the colorimetric malachite green method in which orthophosphate generated during the reaction is measured. Each compound was tested in duplicate at 100, 250 or 500 μM in a mixture, final volume 50 μL, containing 50 mM Hepes (pH 8.0), 5 mM MgCl2, 10 mM (NH4)2SO4, 10 mM KCl, 700 μM D-Ala, 500 μM ATP, purified His-tagged DdlB (diluted in 50 mM Hepes (pH 7.2) and 1 mM DTT) and the test compound dissolved in DMSO. The final concentration of DMSO was 5% (v/v). The reaction mixture was incubated at 37°C for 20 min, then quenched with 100 μL of Biomol reagent and absorbance at 650 nm was measured after 5 min. To exclude possible promiscuous inhibitors, all compounds were tested in the presence of Triton-114 (0.005%). Residual activities were calculated relative to control assays without the compounds and with DMSO.

Series [2] deals with T2, DdlB (Escherichia coli, UniProt P07862).
T2 construct: polyhistidine (His) tag (N); made in house; host or cells: E. coli BL21(λDE3), vector pQE-30 UA (Qiagen)
Nature of the series: Surface plasmon resonance binding to immobilised DdlB. Particulars: steady-state affinity model; 25°C; 50 mM Hepes, 150 mM NaCl, 5% DMSO; read-out: KD (SPR). Here is the method:
The binding of the compounds 11, 13, 14, 24, 27, 33, and 35 to the target enzyme was confirmed using surface plasmon resonance (SPR) (Figure 10). Experiments were performed at conditions that enable long term stability of the enzyme. […] The enzyme was covalently attached to the surface of a sensor chip CM5 and compounds were titrated over the surface. The binding of all the compounds was characterised by fast association and dissociation rates. Equilibrium affinity constants, estimated from the steady-state binding levels are in agreement with enzymatic studies and ITC. In addition, the binding of other compounds was tested but insufficient solubility at higher concentrations of analytes in the running buffer precluded analysis.
Figure 10 SPR analysis of compounds binding to DdlB. Different concentrations of compounds were tested for the binding (left panels in all cases). The binding curves (right panels) were generated by ploting steady-state response levels, i.e. at the end of the association phase, vs concentration of the injected compound. For each compound 3–5 independent titrations were performed.
The binding constants were obtained by using a Biacore T100 (Biacore, GE Healthcare, USA). […] Two 1 min injections of 50 μg/ml DdlB diluted in 10 mM Na-acetate, pH 4.0 were applied on the second flow cell. The first flow cell was left unmodified and served as a control for non-specific binding of tested compounds. The remaining active groups on the surface of both flow cells were deactivated with a 7-min injection of ethanolamine. The level of immobilized enzyme was around 10000 response units.
Each analyte was titrated, with 3 or 4 repetitions, using different concentrations according to their solubility in running buffer (50 mM Hepes, 150 mM NaCl, 5% DMSO, pH 7.4), usually from 0,781 μM to 500 μM. One concentration was repeated at the end of the assay in each dilution series, in order to check the surface stability and repeatability. The association lasted 60 seconds at a flow-rate 30 μl/min. No regeneration was needed. All experiments were performed at 25°C. Sensorgrams were double referenced by subtracting the signal obtained in the empty flow cell and the injection of the buffer. The steady-state response levels were fitted using the Steady State Affinity model in Biacore T100 Evaluation software.
A general note: In SPR one partner is held on a chip, and binding of the other changes the refractive index at the surface.

Series [3] relates to E. coli 1411. Nature of the series: MIC by broth microdilution, E. coli 1411. In kind it is cell-based. Here is the method: (§1) Selected DdlB inhibitors were tested for their antibacterial activity against two E. coli strains E. coli 1411 and E. coli AB734 (Table 2). […] Additionally, growth inhibition of efflux pump-deficient strains SM1411 (acrAB deficient derivative of 1411) and ES100 (tolC deficient derivative of AB734) was measured, and MICs were repeated for each strain in the presence of polymyxin B nonapeptide (PMBN) to assess the impact of outer-membrane permeability on antimicrobial activity.
(§2) Minimum inhibitory concentrations (MICs) were determined by broth microdilution against E. coli 1411, SM1411 (acrAB deficient derivative of 1411), AB734 and ES100 (tolC deficient derivative of AB734) according to CLSI guidelines. MICs were repeated for each strain in the presence of polymyxin B nonapeptide (4 μg/ml) to assess the impact of outer-membrane permeability on antimicrobial activity.
Background: In broth dilution the organism is exposed to a series of concentrations in liquid medium.

The subject of series [4] is E. coli AB734. Nature of the series: MIC by broth microdilution, E. coli AB734. Format: cell-based. Here is the method: as §1, §2
For series [5], the system named is SM1411 (acrAB deficient derivative of 1411). Briefly: MIC by broth microdilution, SM1411. Format: cell-based, E. coli. Conditions: for MIC: Escherichia coli, read-out: MIC SM1411 (acrAB); for MIC SM1411 +PMBN: with polymyxin B nonapeptide (4 μg/ml). Here is the method: as §1, §2
Series [6] has as its system ES100 (tolC deficient derivative of AB734). Briefly: MIC by broth microdilution, ES100. Format: cell-based, E. coli. Particulars: for MIC: Escherichia coli, read-out: MIC ES100 (tolC); for MIC ES100 +PMBN: with polymyxin B nonapeptide (4 μg/ml). The protocol:
as §1, §2

The test system of series [7] is E. coli strains (1411, AB734, SM1411, ES100). Briefly: Antibacterial activity stated for the E. coli strains together. In kind it is cell-based. Particulars: Escherichia coli; read-out: MICs against all strains. Here is the method: as §1, §2
In series [8] the target is T1, E. coli DdlB. Briefly: Isothermal titration calorimetry of binding to DdlB. Particulars: ITC, 37°C; for entropy contribution of binding ([drawing 6]) / standard Gibbs free energy of binding ([drawing 5]): calculated from the fitted parameters. The protocol: Two of the compounds, 14 and 33, were also tested by ITC to obtain thermodynamic parameters of the binding into DdlB active site. Heat changes upon binding of the ligand on the E. coli DdlB were measured directly, corrected for the heats of dilution, and the model function was fitted to the experimental data points (see the Experimental section).
The value of critical parameter for obtaining highly reliable thermodynamic data ( [drawing 10] ) was not optimal due to low inhibitors solubility and quite low binding constants. Nevertheless, the conclusions below can be drawn. Experiments for the two compounds result in similar binding constants (K b≈10^5 M^−1) (Table 1), but the driving forces for the binding differ (Figure 11). The binding of compound 14 to DdlB results from favourable enthalpy and entropy contributions. […] But still, compensation of the opposing effects at 33 results in similar [drawing 11] (and binding constant) as at 14, although there are less specific interactions between 33 and the protein as at 14.
The heat changes upon binding were measured using a VP-ITC microcalorimeter from MicroCal, LLC (Northampton, MA, USA). Purified DdlB stock solution in 20% glycerol was dialysed for 40 hours at 4°C (50 mM Hepes, pH = 8.0, 10 mM KCl, 10 mM (NH4)2SO4, 5 mM MgCl2, and 0.01% Triton X-114) prior to titration. The ligand solutions were prepared by adding a stock solution of 14 or 33 in DMSO to the dialysis buffer to obtain final 50 μM solution of the DdlB inhibitor in 5% DMSO. Successive aliquots (11–31 μl) of the degassed ligand solution were injected at 5–8 min intervals by a motor driven syringe (300 μl) into the degassed DdlB solution (approximately 2 μM, 5% DMSO) in the calorimeter cell (V = 1.386 ml) with constant stirring (300 rpm) at 37°C. At the end of experiment the final ratio of ligand:enzyme in the titration cell was about 6∶1. The titration data was further corrected for the heat changes observed in the control titration of ligand solution into the dialysis buffer, 5% DMSO, alone. The experimental data was analysed using the Origin 7.0 software provided by MicroCal and fitted by a home written program, based on the non-linear Levenberg–Marquardt χ^2 regression procedure, assuming a single binding site model (two parameter fit): [drawing 12] [drawing 13] where P, L, and PL represent DdlB, ligand, and DdlB-ligand complex, ΔH and [drawing 14] are the measured enthalpy upon aliquot addition and the standard enthalpy change of the binding reaction, [drawing 15] and [drawing 16] represent the total number of moles of ligand and DdlB-ligand complex in the titration cell, r is the bound ligand to total protein concentration,[P]tot, ratio and K b is the binding constant. A detailed explanation of the applied model equation is given in the Information S2.

In series [9] the test system is E. coli BC enzyme. Particulars: read-out: IC50 for the E. coli BC enzyme; cited from earlier work.
The target of series [10] is Ddl. Also noted: method as in PMID 14479178. Conditions: read-out: Ki of D-cycloserine on Ddl; cited from earlier work.
The mark [11] stands for this setting: with polymyxin B nonapeptide (4 μg/ml).

`Nc1ncc2cc(-c3c(F)cccc3F)c(N)nc2n1` [Compound 24, 6-(2,6-difluorophenyl)pyrido[2,3-d]pyrimidine-2,7-diamine] came in with a melting point of over 300 °C. Also, the IC50 in [1] was determined as 1110 µM. In series [2], the Kd came to 103 ± 7.8 µM. Also, in series [3] (Escherichia coli, 1411, read-out: MIC 1411), the MIC turned out to be 64 µg/mL (≈ 234 µM). Besides, in series [3] (setting [11]), the “MIC 1411 +PMBN” value was determined as 16 µg/mL (≈ 58.6 µM). In addition, the “MIC 1411” value in series [3] (without PMBN) was found to be 64 µg/mL (≈ 234 µM). Besides, the MIC in series [4] (Escherichia coli, AB734, without PMBN, read-out: MIC AB734) stood at 64 µg/mL (≈ 234 µM). In [4] (setting [11]), the “MIC AB734 +PMBN” value came out at 16 µg/mL (≈ 58.6 µM). Further, the “MIC AB734” value in series [4] (without PMBN) is 64 µg/mL (≈ 234 µM). For the same compound, in series [5], the MIC came out at 64 µg/mL (≈ 234 µM) and the “MIC SM1411 +PMBN” value is 8 µg/mL (≈ 29.3 µM). Besides, in [6], the MIC turned out to be 16 µg/mL (≈ 58.6 µM) and the “MIC ES100 +PMBN” value was found to be 8 µg/mL (≈ 29.3 µM).
The compound `Nc1ncc2cc(-c3ccc4c(c3)OCO4)c(N)nc2n1` [Compound 35, 6-(benzo[d][1,3]dioxol-5-yl)pyrido[2,3-d]pyrimidine-2,7-diamine] yielded a melting point of over 300 °C. Moreover, the IC50 in [1] stood at 1110 µM. The Kd in series [2] was found to be 104 ± 36.2 µM. In series [7], the MIC was over 256 µg/mL.
`Nc1ncc2cc(-c3ccccc3)c(N)nc2n1` [Compound 11, 6-phenylpyrido[2,3-d]pyrimidine-2,7-diamine] displayed a melting point of over 300 °C. Moreover, in series [1], the IC50 was 1140 µM. The Kd in series [2] amounted to 150 ± 33.1 µM.
As for `Nc1ncc2cc(-c3c(Br)cccc3Br)c(N)nc2n1` [Compound 33, 6-(2,6-dibromophenyl)pyrido[2,3-d]pyrimidine-2,7-diamine], in series [1], the Ki amounted to 38 ± 5 µM, the “mode of inhibition of DdlB” value is on record as “ATP competitive inhibitors” and the IC50 came out at 453 µM. In series [2], the Kd worked out at 161 ± 73.7 µM. Besides, in series [8], the Kd was found to be 10 µM, the “standard enthalpy of binding ([drawing 4])” value came to 4 kcal/mol, the “entropy contribution of binding ([drawing 6])” value was 11 kcal/mol and the “standard Gibbs free energy of binding ([drawing 5])” value was -7 kcal/mol. In addition, in series [5], the MIC was 1 µg/mL (≈ 2.53 µM) and the “MIC SM1411 +PMBN” value was 0,25 μg/ml. Besides, in [6], the MIC amounted to 0.5 µg/mL (≈ 1.27 µM) and the “MIC ES100 +PMBN” value is 0,125 μg/ml. Further, the IC50 in series [9] is under 0.005 µM.
For the compound `COc1cc(OC)cc(-c2cc3cnc(N)nc3nc2NC(=O)NC(C)(C)C)c1` [Compound 14, 1-(2-amino-6-(3,5-dimethoxyphenyl)pyrido[2,3-d]pyrimidin-7-yl)-3-tert-butylurea], in series [1], the Ki was found to be 31 ± 4 µM, the “mode of inhibition of DdlB” value was “ATP competitive inhibitors” and the IC50 was 340 µM. The “fold greater DdlB inhibitory potency than corresponding diamine 13” value in series [1] (ratio of IC50 values, 14 against 13) was determined as 2.6 fold. Further, the Kd in [2] was 19 ± 6.6 µM. For the same compound, in [8], the Kd worked out at 10 µM, the “standard enthalpy of binding ([drawing 4])” value was -4 kcal/mol, the “entropy contribution of binding ([drawing 6])” value was 3 kcal/mol and the “standard Gibbs free energy of binding ([drawing 5])” value is -7 kcal/mol. In addition, the MIC in series [7] was over 256 µg/mL.
Regarding `CC(C)(C)NC(=O)Nc1nc2nc(N)ncc2cc1-c1c(Cl)cccc1Cl` [Compound 27, 1-(2-amino-6-(2,6-dichlorophenyl)pyrido[2,3-d]pyrimidin-7-yl)-3-tert-butylurea], the IC50 in [1] turned out to be 655 µM. For the same compound, the Kd in series [2] amounted to 16.7 ± 6.5 µM. For the same compound, the MIC in [7] was over 256 µg/mL.
In the case of `N[C@@H]1CON=C1O` [D-cycloserine, D-4-amino-3-isoxazolidone, reference compound], the IC50 in series [1] worked out at 296 µM. Further, the Ki in [10] was 27 µM.

The IC50 is the midpoint of a concentration-inhibition curve. Usually Kd stands for the free concentration of one partner at which half of the binding sites on the other are occupied at equilibrium, for simple one-to-one binding. In general, melting point refers to the temperature, or range, at which the solid turns liquid. For orientation: Ki means the dissociation constant of the complex between target and ligand, obtained from inhibition or displacement.
